# Measured values reported in PMC11809514, “Investigation of the activity of 4-aminoquinolines as cysteine protease inhibitors with application in the treatment of Chagas disease” (Memórias do Instituto Oswaldo Cruz, 2025).
# Read-outs that look alike come from different tables or passages of the source.
# What was measured:
# cruzain = details: cited from earlier work
# Recombinant cruzain = target: T1, Recombinant cruzain (Trypanosoma cruzi, UniProt P25779); experiment: Cruzain inhibition, cleavage of fluorogenic substrate Z-FR-AMC; type: biochemical; details: for inhibition at 23 µM: compound at 23 µM
# T1 construct: gift: Allison Doak and Prof Brian Shoichet (University of California San Francisco)
# Protocol: (§1) Assays against cruzain and TbrCATL - Recombinant cruzain and TbrCatL were generously provided by Allison Doak and Prof Brian Shoichet (University of California San Francisco, San Francisco, CA, USA) and Prof Conor Caffrey (University of California San Diego, San Diego, CA, USA), respectively. Enzyme activity was measured by monitoring the cleavage of the fluorogenic substrate Z-Phe-Arg-amidomethylcoumarin (Z-FR-AMC) at 25 °C. Fluorescence was monitored at 340/440 nm (excitation/emission) in a Biotec 87 Synergy 2 fluorimeter. Assays were conducted in 96-well flat bottom black plates in 0.1 M sodium acetate buffer, pH 5.5, 10 mM β-mercaptoethanol, 0.01% Triton X-100, […] enzyme and 2.5 µM substrate. DMSO and 1 µM E-64 were employed as negative and positive controls, respectively, in all assays. Assays were performed in triplicate, and enzyme activity was measured for 5 min. Reported values correspond to the mean and standard error of the mean (SEM).
# (§2) Compounds were initially screened at a concentration of 100 µM against cruzain with and without a 10 min pre-incubation with the enzyme. […] IC50 values were determined from two independent experiments, each with seven compounds concentrations in triplicate. Dose-response curves were built by non-linear regression with Graph Pad Prism 6.
# To evaluate the effects of Triton X-100 concentration on enzyme inhibition, assays were conducted using 0.1%, 0.01% and 0% Triton X-100. To access the impact of pre-incubation of bovine serum albumin (BSA) on enzyme inhibition, compounds were incubated with BSA (4 mg/mL, for a final assay concentration of 1 mg/mL) for 10’ followed by 10’ incubation with 2 nM enzyme. Finally, Z-FR-AMC was added to each well and the fluorescence was immediately read.
# Recombinant TbrCatL = target: T2, Recombinant TbrCatL (Trypanosoma brucei rhodesiense, UniProt Q95PM0); experiment: TbrCatL inhibition, cleavage of fluorogenic substrate Z-FR-AMC; type: biochemical, T. brucei
# T2 construct: gift: Prof Conor Caffrey (University of California San Diego)
# Protocol: as §1, §2
# [1] = test system: T. cruzi Tulahuen strain (amastigotes and trypomastigotes); experiment: Anti-T. cruzi activity assay (amastigotes and trypomastigotes) in infected L929 cells, beta-galactosidase reporter; type: cell-based, Trypanosoma cruzi; details: 96 h exposure
# Protocol: Anti-T. cruzi activity assay (amastigotes and trypomastigotes) - The in vitro anti-T. cruzi activity was evaluated on L929 cells (mouse fibroblasts) infected with Tulahuen strain of the parasite expressing the Escherichia coli β-galactosidase as reporter gene according to the method described previously.[49] Briefly, for the bioassay, 4,000 L929 cells were added to each well of a 96-well microtiter plate. After an overnight incubation, 40,000 trypomastigotes were added to the cells and incubated for 2 h. Then the medium containing extracellular parasites was replaced with 200 μL of fresh medium and the plate was incubated for an additional 48 h to establish the infection. For IC50 determination, the cells were exposed to each synthesized compound at serial decreasing dilutions and the plate was incubated for 96 h. After this period, 50 μL of 500 μM chlorophenol red beta-D-galactopyranoside (CPRG) in 0.5% Nonidet P40 was added to each well, and the plate was incubated for 16 to 20 h, after which the absorbance at 570 nm was measured. Controls with uninfected cells, untreated infected cells, infected cells treated with benznidazole at 3.8 μM (positive control) or DMSO 1% were used. The results were expressed as the percentage of T. cruzi growth inhibition in compound tested cells as compared to the infected cells and untreated cells. The IC50 values were calculated by linear interpolation. Quadruplicates were run in the same plate, and the experiments were repeated at least once.
# (§3) IC50 over T. cruzi and L929 cells were determined by linear interpolation and the selectivity index (SI) was calculated by the ratio of CC50 L929 cells/ IC50 T. cruzi.
# mammalian cathepsin S = test system: mammalian cathepsin S; set-up: method as in PMID 28215783, PMID 32116030; details: cited from earlier work
# mammalian cathepsin B = test system: mammalian cathepsin B; set-up: method as in PMID 28215783, PMID 32116030; details: cited from earlier work
# [2] = In vitro cytotoxicity over L929 cell line (alamarBlue); type: cell-based, mouse; details: mouse, L929 cells (mouse fibroblasts); uninfected L929 cells; 96 h incubation
# Protocol: (§4) In vitro cytotoxic activity test of compounds and CC 50 determination over L929 cell line - For this bioassay, 4,000 L929 cells in 200 μL of RPMI-1640 medium (pH 7.2-7.4) (Gibco BRL) plus 10% foetal bovine serum and 2 mM glutamine were added to each well of a 96-well microtiter plate that was incubated for three days at 37 °C. The medium was then replaced, and the cells were exposed to compounds at increasing concentrations starting at IC50 value for T. cruzi. After 96 h of incubation with the compounds the alamarBlueTM was added and the absorbance at 570 and 600 nm was measured after 4-6 h. Controls with untreated and DMSO 1%-treated cells were run in parallel. The results were expressed as the percent difference in the reduction between treated and untreated cells. The compound concentration that inhibits 50% of the L929 cell viability (CC50) was determined. Quadruplicates were run in the same plate and the experiments were repeated at least once.
# as §3
# [3] = test system: L929 cells (mouse fibroblasts); experiment: as above; type: cell-based; details: ratio CC50 L929 / IC50 T. cruzi
# Protocol: as §4, §3
# [4] = 100 µM compound, 10 min pre-incubation with enzyme, 0.01% Triton X-100, read-out: % Inhibition at 100 µM (Mean ± SEM) Cruzain 10' pre-incubation
# [5] = 100 µM compound, no pre-incubation, 0.01% Triton X-100, read-out: % Inhibition at 100 µM (Mean ± SEM) Cruzain No pre-incubation
# [6] = 100 µM compound, 10 min pre-incubation with enzyme, read-out: % Inhibition at 100 µM (Mean ± SEM) TbrCATL 10' pre-incubation
# T2 sequence (Q95PM0 entry or part of it): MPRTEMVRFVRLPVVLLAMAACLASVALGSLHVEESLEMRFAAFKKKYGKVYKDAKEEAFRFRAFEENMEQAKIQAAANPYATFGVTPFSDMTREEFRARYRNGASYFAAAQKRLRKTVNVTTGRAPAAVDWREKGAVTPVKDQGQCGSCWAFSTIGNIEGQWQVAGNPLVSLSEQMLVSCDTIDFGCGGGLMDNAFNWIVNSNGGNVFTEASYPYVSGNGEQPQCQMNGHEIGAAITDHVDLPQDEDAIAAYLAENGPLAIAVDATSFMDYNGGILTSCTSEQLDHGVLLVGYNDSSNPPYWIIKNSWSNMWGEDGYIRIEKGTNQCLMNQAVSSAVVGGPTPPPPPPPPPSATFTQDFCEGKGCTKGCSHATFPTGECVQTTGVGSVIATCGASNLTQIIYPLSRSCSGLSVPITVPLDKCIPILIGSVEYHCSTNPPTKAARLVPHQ
# T1 sequence (P25779 123-467): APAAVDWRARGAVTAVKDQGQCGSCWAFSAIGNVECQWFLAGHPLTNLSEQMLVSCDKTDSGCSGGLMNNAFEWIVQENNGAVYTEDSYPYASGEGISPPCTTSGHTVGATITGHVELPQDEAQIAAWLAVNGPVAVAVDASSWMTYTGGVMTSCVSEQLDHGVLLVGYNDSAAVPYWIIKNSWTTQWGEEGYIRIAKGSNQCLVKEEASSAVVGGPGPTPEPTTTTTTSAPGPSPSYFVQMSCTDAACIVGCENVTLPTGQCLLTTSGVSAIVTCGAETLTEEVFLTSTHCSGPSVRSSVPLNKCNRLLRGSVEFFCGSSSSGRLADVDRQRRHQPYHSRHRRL
compound,measurement,setting,value
Clc1ccc2[nH]c3c(NCCCN4CCOCC4)ncnc3c2c1 [Compound 1],IC50,cruzain; hit from HTS,2.5 µM
same,Ki,cruzain; non-covalent competitive inhibitor from HTS,2 µM
"Clc1ccc2c(NCc3ccco3)ccnc2c1 [Compound 5, 7-chloro-N-(furan-2-ylmethyl)quinolin-4-amine]",inhibition at 100 µM,Recombinant cruzain; [4],99 ± 1%
same,inhibition at 100 µM,Recombinant cruzain; [5],93 ± 1%
same,inhibition at 23 µM,"Recombinant cruzain; 0.01% Triton X-100, read-out: % Inhibition of cruzain (Mean ± SEM) Triton 0.01%",28.4 ± 2%
same,inhibition at 23 µM,"Recombinant cruzain; 0.1% Triton X-100, read-out: % Inhibition of cruzain (Mean ± SEM) Triton 0.1%",28.4 ± 3%
same,inhibition at 23 µM,"Recombinant cruzain; no Triton X-100, read-out: % Inhibition of cruzain (Mean ± SEM) Triton 0%",100 ± 1%
same,inhibition at 23 µM,"Recombinant cruzain; pre-incubation with BSA (final 1 mg/mL), no Triton X-100, read-out: % Inhibition of cruzain (Mean ± SEM) BSA + Triton 0%",32.2 ± 1%
same,IC50,"Recombinant cruzain; two independent experiments, seven concentrations in triplicate, read-out: IC50 against cruzain",23 µM
same,inhibition at 100 µM,Recombinant TbrCatL; [6],94 ± 1%
same,inhibition at 100 µM,"Recombinant TbrCatL; 100 µM compound, no pre-incubation, read-out: % Inhibition at 100 µM (Mean ± SEM) TbrCATL No pre-incubation",87 ± 3%
same,IC50,"Recombinant TbrCatL; two independent experiments, seven concentrations in triplicate, read-out: IC50 against TbrCatL",29 µM
same,IC50,[1]; Trypanosoma cruzi,143 µM
CC(C)(CN)CNc1ccnc2cc(Cl)ccc12 [Compound 3],Inhibition of mammalian cathepsin S,mammalian cathepsin S,did not inhibit
same,Inhibition of mammalian cathepsin B,mammalian cathepsin B,did not inhibit
Clc1ccc2c(NCCCN3CCOCC3)ccnc2c1 [Compound 2],Inhibition of mammalian cathepsin S,mammalian cathepsin S,did not inhibit
same,Inhibition of mammalian cathepsin B,mammalian cathepsin B,did not inhibit
"Clc1ccc2c(NC3CCCCC3)ccnc2c1 [Compound 4, 7-chloro-N-cyclohexylquinolin-4-amine]",inhibition at 100 µM,Recombinant cruzain; [4],18 ± 2%
same,inhibition at 100 µM,Recombinant cruzain; [5],19 ± 1%
same,inhibition at 100 µM,Recombinant TbrCatL; [6],38 ± 4%
same,IC50,[1]; Trypanosoma cruzi,2.57 ± 0.11 µM
same,CC50 at 96 h,[2],< 2.3 µM
N-butyl-7-chloroquinolin-4-amine [Compound 6],% Inhibition at 100 µM (Mean ± SEM) Cruzain 10' pre-incubation,"Recombinant cruzain; 100 µM compound, 10 min pre-incubation with enzyme, 0.01% Triton X-100",35 ± 1%
same,% Inhibition at 100 µM (Mean ± SEM) Cruzain No pre-incubation,"Recombinant cruzain; 100 µM compound, no pre-incubation, 0.01% Triton X-100",35 ± 1%
same,% Inhibition at 100 µM (Mean ± SEM) TbrCATL 10' pre-incubation,"Recombinant TbrCatL; 100 µM compound, 10 min pre-incubation with enzyme",42 ± 4%
same,IC50,[1],150 µM
"O=C(Cn1ccnc1[N+](=O)[O-])NCc1ccccc1 [Benznidazole, reference compound]",IC50,[1]; Trypanosoma cruzi,3.8 ± 0.8 µM
same,"SI (selectivity index), CC50 L929 cells / IC50 T. cruzi",[3],626
